Data on 2 compounds can be found in ChEMBL document CHEMBL4765362, “Thirty Years of HDAC Inhibitors: 2020 Insight and Hindsight” (J Med Chem, 2020).

The target in one test is T1, Histone deacetylase 8 (Homo sapiens, UniProt Q9BY41).
T1 sequence (Q9BY41 whole entry): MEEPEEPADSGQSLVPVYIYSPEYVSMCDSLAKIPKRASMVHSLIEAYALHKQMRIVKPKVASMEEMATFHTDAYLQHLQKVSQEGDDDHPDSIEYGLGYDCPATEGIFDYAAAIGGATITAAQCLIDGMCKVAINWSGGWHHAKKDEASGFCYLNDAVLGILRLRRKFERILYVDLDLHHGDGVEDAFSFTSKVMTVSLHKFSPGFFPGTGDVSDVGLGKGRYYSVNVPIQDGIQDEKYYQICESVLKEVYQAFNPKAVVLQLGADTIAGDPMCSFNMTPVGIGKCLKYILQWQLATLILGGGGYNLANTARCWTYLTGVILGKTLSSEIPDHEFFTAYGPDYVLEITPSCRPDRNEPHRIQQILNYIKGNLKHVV
The experiment in a line: Inhibition of HDAC8 (unknown origin) using p53 (379 to 382 residues)(RHK(Ac)K(ac)AMC) as substrate by fluorescent method.

For the next test, the target named is Histone deacetylase 5 (Homo sapiens, UniProt Q9UQL6). The experiment in a line: Inhibition of HDAC5 (unknown origin) using HDAC class IIa substrate (trifluoroacetyl-lysine-AMC) as substrate by fluorescent method.
Sequence of Histone deacetylase 5 (Q9UQL6 whole entry): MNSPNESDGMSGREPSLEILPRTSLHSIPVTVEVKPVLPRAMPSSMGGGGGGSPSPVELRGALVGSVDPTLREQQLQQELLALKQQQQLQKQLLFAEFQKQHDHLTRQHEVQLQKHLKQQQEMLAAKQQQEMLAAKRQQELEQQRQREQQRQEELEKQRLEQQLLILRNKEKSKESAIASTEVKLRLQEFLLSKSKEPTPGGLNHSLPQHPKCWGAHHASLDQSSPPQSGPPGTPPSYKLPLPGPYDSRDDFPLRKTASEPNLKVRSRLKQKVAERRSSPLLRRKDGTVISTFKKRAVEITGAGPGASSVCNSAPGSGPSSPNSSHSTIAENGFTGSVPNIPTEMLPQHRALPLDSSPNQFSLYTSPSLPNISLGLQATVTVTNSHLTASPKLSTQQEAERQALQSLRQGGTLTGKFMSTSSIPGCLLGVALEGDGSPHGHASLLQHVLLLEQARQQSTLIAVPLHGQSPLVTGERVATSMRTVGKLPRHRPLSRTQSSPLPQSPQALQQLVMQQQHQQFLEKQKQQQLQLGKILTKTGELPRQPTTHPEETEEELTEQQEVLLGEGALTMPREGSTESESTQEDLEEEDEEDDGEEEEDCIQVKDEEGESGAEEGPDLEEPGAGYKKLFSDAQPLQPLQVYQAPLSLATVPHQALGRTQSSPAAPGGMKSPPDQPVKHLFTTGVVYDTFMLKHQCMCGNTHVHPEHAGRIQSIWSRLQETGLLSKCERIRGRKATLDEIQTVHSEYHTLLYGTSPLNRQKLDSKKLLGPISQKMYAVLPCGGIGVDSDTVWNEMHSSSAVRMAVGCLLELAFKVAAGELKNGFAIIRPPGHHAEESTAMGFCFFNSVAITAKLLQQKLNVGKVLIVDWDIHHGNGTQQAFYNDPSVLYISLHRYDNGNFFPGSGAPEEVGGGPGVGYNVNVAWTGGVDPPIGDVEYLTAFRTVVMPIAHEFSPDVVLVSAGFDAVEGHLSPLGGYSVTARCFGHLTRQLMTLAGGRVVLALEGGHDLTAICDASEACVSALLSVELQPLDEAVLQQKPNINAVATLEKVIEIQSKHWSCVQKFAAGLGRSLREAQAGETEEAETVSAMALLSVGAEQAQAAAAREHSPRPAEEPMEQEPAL
The target of another test is T2, Histone deacetylase 11 (Homo sapiens, UniProt Q96DB2).
T2 sequence (Q96DB2 whole entry): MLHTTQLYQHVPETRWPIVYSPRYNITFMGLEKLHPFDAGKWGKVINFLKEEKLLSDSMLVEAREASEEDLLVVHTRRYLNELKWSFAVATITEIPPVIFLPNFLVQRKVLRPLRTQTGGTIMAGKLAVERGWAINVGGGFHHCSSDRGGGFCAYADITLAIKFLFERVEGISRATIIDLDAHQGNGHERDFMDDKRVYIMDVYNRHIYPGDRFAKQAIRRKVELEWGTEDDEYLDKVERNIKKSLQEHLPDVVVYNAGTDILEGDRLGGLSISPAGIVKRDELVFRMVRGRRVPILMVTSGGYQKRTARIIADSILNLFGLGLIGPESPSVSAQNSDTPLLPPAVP
The test can be described thus: Inhibition of human full length C-terminal Flag tagged HDAC11 expressed in HEK293T cells assessed as reduction in demyristoylation activity using H3K9-myristoyl peptide as substrate by HPLC method.

For test [1], the target named is T3, Protein deacetylase HDAC6 (Homo sapiens, UniProt Q9UBN7).
T3 sequence (Q9UBN7 whole entry): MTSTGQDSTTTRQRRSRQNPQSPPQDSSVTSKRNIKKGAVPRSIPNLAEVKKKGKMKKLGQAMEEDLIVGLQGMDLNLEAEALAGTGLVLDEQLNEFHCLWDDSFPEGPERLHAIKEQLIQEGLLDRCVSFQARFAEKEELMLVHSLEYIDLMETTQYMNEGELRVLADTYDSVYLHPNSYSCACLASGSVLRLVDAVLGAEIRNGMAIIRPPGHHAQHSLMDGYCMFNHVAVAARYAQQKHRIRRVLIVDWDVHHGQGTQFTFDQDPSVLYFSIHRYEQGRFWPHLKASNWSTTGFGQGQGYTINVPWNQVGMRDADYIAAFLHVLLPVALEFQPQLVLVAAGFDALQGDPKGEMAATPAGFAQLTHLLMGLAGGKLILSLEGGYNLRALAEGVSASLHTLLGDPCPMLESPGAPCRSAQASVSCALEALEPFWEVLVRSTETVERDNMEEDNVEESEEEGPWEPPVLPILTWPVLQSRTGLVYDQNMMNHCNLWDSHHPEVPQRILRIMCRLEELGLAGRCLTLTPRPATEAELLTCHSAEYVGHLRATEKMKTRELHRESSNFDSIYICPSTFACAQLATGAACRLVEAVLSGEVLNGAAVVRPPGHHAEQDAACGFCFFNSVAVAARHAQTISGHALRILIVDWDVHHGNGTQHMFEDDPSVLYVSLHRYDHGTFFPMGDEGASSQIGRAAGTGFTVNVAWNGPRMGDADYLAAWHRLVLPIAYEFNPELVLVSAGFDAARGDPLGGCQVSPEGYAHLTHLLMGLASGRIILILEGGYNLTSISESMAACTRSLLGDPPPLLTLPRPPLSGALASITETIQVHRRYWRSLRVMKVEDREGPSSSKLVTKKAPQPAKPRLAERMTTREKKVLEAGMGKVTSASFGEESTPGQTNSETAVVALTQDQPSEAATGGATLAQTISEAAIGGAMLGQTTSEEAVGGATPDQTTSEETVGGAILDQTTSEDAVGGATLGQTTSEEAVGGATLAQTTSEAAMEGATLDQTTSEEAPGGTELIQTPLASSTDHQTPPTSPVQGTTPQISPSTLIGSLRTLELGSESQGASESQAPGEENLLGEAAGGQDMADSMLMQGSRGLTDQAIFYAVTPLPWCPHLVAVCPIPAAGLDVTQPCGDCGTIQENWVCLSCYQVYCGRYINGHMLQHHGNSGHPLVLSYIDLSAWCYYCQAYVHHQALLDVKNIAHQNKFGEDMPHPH
The experiment in a line: Inhibition of HDAC6 (unknown origin).

For another test, the target named is T4, Histone deacetylase 7 (Homo sapiens, UniProt Q8WUI4).
T4 sequence (Q8WUI4 whole entry): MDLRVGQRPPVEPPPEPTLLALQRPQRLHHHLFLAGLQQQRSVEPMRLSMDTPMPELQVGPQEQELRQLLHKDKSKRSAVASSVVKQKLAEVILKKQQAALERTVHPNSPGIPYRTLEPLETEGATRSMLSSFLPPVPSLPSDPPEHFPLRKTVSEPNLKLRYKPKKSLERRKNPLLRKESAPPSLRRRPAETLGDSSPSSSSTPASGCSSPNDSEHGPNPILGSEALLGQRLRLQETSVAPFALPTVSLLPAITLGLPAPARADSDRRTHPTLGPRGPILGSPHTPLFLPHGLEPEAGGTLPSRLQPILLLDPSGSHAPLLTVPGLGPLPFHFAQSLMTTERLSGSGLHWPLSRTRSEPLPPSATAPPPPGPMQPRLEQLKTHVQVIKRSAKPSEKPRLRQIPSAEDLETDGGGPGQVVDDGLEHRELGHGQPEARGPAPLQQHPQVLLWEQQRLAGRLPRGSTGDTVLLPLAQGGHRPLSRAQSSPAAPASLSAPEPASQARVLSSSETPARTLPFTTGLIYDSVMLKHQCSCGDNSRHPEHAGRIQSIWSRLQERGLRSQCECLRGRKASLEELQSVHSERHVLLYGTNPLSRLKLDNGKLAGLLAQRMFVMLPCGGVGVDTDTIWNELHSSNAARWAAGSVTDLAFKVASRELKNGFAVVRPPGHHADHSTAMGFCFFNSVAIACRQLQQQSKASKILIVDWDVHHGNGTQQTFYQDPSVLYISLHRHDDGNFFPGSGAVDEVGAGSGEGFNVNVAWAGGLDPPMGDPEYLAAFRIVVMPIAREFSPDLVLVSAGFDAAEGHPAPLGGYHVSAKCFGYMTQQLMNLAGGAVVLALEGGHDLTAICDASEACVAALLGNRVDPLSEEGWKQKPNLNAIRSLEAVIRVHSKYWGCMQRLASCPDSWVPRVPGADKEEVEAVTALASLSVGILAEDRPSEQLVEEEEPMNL
The test can be described thus: Inhibition of HDAC7 (unknown origin).

Some results are limits rather than exact numbers.

By IC50 is commonly meant the concentration that inhibits the measured activity by half. With `Cn1cc(-c2ccc(S(=O)(=O)n3ccc(/C=C/C(=O)Nc4ccccc4N)c3)cc2)cn1` [DOMATINOSTAT], the IC50 against Histone deacetylase 8 and against Histone deacetylase 5 was > 10 µM each time.

Take `CCCCCCCCCCCCCCCCNNC(=O)c1cccs1`: the half-inhibitory concentration (IC50) at Histone deacetylase 11 was 0.83 µM; in test [1], > 10 µM; on Histone deacetylase 7, > 10 µM.
